Assay results: ChEMBL document CHEMBL4610047, “Design, synthesis and anti-Alzheimer's disease activity study of xanthone derivatives based on multi-target strategy” (Bioorg Med Chem Lett, 2020)
The source made the active and inactive calls. No cut-off for these calls is given here.

Key:
[1] = biological target: Acetylcholinesterase (Electrophorus electricus) (UniProt O42275); assay: Mixed type inhibition of electric eel AChE assessed as decrease in Vmax at 0.16 to 0.64 uM by reciprocal Lineweaver-Burk plot analysis
Sequence of Acetylcholinesterase (Electrophorus electricus) (O42275 24-633 limits assumed): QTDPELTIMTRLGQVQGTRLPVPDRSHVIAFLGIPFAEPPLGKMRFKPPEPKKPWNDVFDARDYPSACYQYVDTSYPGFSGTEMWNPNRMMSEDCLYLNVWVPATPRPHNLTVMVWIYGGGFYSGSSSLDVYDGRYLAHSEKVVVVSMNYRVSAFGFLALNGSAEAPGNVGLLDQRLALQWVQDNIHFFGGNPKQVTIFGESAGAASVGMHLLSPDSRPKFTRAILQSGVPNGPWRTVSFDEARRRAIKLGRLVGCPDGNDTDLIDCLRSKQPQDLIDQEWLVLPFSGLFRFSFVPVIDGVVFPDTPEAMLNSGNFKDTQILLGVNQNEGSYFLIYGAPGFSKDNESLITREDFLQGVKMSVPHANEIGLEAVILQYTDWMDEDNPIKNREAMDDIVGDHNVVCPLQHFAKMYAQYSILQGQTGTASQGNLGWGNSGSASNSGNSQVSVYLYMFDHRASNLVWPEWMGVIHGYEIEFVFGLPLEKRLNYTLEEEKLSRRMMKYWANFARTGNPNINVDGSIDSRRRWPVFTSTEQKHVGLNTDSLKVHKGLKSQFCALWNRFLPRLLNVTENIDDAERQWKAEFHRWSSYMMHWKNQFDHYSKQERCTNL

Cholinesterase = Cholinesterase (Equus caballus, UniProt P81908); assay: Inhibition of equine serum BChE using butyrylthiocholine as substrate by Ellman's method
Sequence of Cholinesterase (P81908 whole entry): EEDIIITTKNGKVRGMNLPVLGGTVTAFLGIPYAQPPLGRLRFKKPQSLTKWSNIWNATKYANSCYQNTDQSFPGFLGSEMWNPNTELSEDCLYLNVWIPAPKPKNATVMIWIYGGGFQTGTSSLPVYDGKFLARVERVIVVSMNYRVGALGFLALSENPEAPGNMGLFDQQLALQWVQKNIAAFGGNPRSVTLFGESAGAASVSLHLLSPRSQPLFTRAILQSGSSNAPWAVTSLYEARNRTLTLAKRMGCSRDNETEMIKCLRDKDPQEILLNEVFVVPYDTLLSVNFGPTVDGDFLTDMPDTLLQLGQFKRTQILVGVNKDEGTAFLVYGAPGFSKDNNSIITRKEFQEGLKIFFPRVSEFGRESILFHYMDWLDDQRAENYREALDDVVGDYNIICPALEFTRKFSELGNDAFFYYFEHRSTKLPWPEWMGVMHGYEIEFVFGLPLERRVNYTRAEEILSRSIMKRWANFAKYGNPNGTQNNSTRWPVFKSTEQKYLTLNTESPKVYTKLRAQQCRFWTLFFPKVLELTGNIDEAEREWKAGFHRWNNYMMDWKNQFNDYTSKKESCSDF

[2] = biological target: Acetylcholinesterase (Electrophorus electricus) (UniProt O42275); assay: Mixed type inhibition of electric eel AChE assessed as increase in Km at 0.16 to 0.64 uM by reciprocal Lineweaver-Burk plot analysis
[3] = Metal chelating activity assessed as compound-Cu2+ complex stoichiometry ratio of 2:1 at 10 uM in presence of CuCl2 after 30 mins by UV-visible spectrophotometric analysis
Acetylcholinesterase = Acetylcholinesterase (Electrophorus electricus, UniProt O42275); assay: Inhibition of electric eel AChE using acetylthiocholine iodide as substrate by Ellman's method
Sequence of Acetylcholinesterase (O42275 whole entry): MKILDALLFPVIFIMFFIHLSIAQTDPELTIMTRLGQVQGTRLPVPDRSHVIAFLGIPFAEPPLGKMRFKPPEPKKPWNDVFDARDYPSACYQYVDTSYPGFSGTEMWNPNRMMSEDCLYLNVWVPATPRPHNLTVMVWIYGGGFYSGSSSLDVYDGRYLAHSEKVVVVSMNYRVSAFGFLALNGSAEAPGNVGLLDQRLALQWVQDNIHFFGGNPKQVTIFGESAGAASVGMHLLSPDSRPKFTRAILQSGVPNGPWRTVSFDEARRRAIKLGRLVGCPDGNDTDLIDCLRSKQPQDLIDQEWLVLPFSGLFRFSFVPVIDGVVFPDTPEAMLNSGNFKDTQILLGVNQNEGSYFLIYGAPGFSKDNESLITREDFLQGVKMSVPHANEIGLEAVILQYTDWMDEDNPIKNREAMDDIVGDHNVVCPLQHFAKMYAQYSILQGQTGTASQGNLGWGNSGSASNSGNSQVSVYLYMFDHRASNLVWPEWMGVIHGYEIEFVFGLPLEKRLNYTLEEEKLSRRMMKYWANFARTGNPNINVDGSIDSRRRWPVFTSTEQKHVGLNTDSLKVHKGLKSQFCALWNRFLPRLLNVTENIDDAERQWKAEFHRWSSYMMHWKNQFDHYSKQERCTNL

[4] = Metal chelating activity assessed as compound-Cu2+ complex formation by measuring stability constant at 10 uM in presence of CuCl2 after 30 mins by UV-visible spectrophotometric analysis
[5] = Metal chelating activity assessed as compound-Cu2+ complex formation by measuring band wavelength at 10 uM in presence of CuCl2 after 30 mins by UV-visible spectrophotometric analysis

SMILES	inhibition [1]	IC50 (Cholinesterase)	inhibition [2]	Activity [3]	IC50 (Acetylcholinesterase)	K [4]	Activity [5]
O=c1c2ccc(OCCN3CCCC3)cc2oc2cc(OCCN3CCCC3)cc(O)c12	Active	3.7 µM	Active	Active	0.328 µM	2.67 ×10⁵ No_unit	Active
CN(C)CCOc1ccc2c(=O)c3c(O)cc(OCCN(C)C)cc3oc2c1	–	18 µM	–	Active	2.47 µM	1.65 ×10⁵ No_unit	Active
O=c1c2ccc(OCCN3CCCCC3)cc2oc2cc(OCCN3CCCCC3)cc(O)c12	–	4.02 µM	–	Active	0.964 µM	2.16 ×10⁵ No_unit	Active
O=c1c2ccc(OCCN3CCOCC3)cc2oc2cc(OCCN3CCOCC3)cc(O)c12	–	> 300 µM	–	Active	31.2 µM	1.14 ×10⁵ No_unit	Active
